Literature values in patent US20110268669A1, “COMPOSITION AND METHOD FOR TREATING EUSTACHIAN TUBE DYSFUNCTION” (priority 2010, published 2011).

Settings: taken as a chewing gum

## OC[C@@H](O)[C@H](O)[C@@H](O)CO [Xylitol]
  prevention of otitis media: shown to prevent otitis media
